Measured values from patent US9161935B2 (TEVA PHARMACEUTICAL INDUSTRIES, LTD., priority 2012, dated 2015).

Columns and labels:
[1] = test system: Subjects with moderate to severe Crohn's disease (CD); assay: Phase IIb trial LAQ-CD-202 (Example 3); assay type: in vivo, human
Experimental: Capsules should be swallowed with a glass of water.
On Days 1 and 2, this dose is administered twice daily (BID) as a loading dose (total daily dose 0.5 mg). Dosing is once daily (QD) from Day 3 onwards.
On Days 1 and 2, this dose is administered BID as a loading dose (total daily dose 1 mg). Dosing is QD from Day 3 onwards.
Subjects with moderate to severe Crohn's disease (CD), as determined by a Crohn's Disease Activity Index (CDAI) score of 220-450 (inclusive).
Remission: subjects with CDAI <150 subjects not designated a Treatment Failure (TF).
Response 100: reduction of CDAI by at least 100 points compared to Baseline in subjects not designated a Treatment Failure (TF). Any subject with Remission is also considered to have achieved Response 100.
Response 70: reduction of CDAI by at least 70 points compared to Baseline, in subjects not designated a TF.
(§1) IBDQ Response: An increase from baseline in total IBDQ score of ≧16 points.
(§2) IBDQ Remission: A total IBDQ score of >170 points.
Treatment duration is 8 weeks. Scheduled in-clinic visits are conducted at Screening, Baseline (Week 0), and at Weeks 1, 2, 4, 6, and 8. Unscheduled visits for safety or for any other reason may be conducted at any time during the study
A loading dose regimen of the study drug is given during the first 2 days of treatment (Day 1 [Baseline] and Day 2). The first loading dose of the study drug is administered at the site. The loading dose doubles the intended dose for the first 2 days and is administered BID with 12-hour intervals between dosing. Thereafter, starting on Day 3, the dosing regimen consists of the intended dose QD.
During the study period the CDAI score is assessed in addition to routine safety. Subjects are required to maintain CDAI diaries for each day of the Screening period and, if randomized, on each day of the treatment period. The scores obtained from the 7 consecutive diaries completed prior to the Baseline visit and to each of Weeks 1, 2, 4, 6, and 8 contribute to a total CDAI score at each of these time points.
The primary efficacy endpoint is the proportion of subjects achieving Remission (CDAI <150) at Week 8 with subjects not designated a Treatment Failure (TF).
Secondary Efficacy Endpoints: • Proportion of subjects achieving Response 70 at Week 8. • Proportion of subjects achieving Response 100 at Week 8. • Mean change in total IBDQ score from Baseline to Week 8. • Proportion of subjects with an IBDQ Response at Week 8. • Proportion of subjects with IBDQ Remission at Week 8.

[2] = test system: Moderate to Severe Crohn's Disease Patients; assay: Phase III 52-week maintenance of remission study LAQ-CD-303 (Example 4); assay type: in vivo, human
Experimental: A phase III, randomized, double-blind, placebo-controlled 52-week maintenance of remission study is conducted in active moderate to severe Crohn's disease patients.
Subjects with a Response during the 8-week induction studies LAQ-CD-202, LAQ-CD-301, or LAQ-CD-302 are re-randomized into this placebo-controlled maintenance study. Response in those induction studies was defined as a Crohn's Disease Activity Index (CDAI) reduction of at least 70 points from Baseline and CDAI <220 at Week 8 of the induction study in the absence of treatment failure (TF); in particular, this included subjects in Remission. In those 3 induction studies, TF was defined as follows: any new medication/treatment (including surgery) for Crohn's disease (CD) or dose increase not allowed by the protocol, throughout the study period; any early termination from the study was also regarded as TF. No de novo subjects are included in this study.
Remission: Subjects with CDAI <150 with no Treatment Failure (TF) during the course of the study.
Steroid Free Remission: Subjects achieving both Remission and steroid free.
as §1, §2
Treatment duration is 52 weeks. Scheduled in-clinic visits are conducted at Baseline (Week 0), and at Weeks 2, 4, 8, 12, 16, 20, 28, 36, 44, and 52. The Week 0 visit for this maintenance study is the same as the Week 8 visit in the induction study. Unscheduled visits for safety or for any other reason may be conducted at any time during the study.
Primary Efficacy Endpoint: • The primary endpoint is evaluated for subjects who belong to the PEC. • The proportion of subjects in Remission at Week 52.
Secondary Efficacy Endpoints: • The secondary endpoints are evaluated for subjects who belong to the PEC. • The proportion of subjects in Sustained Remission (defined as Remission at Week 36 and Week 52). • The proportion of subjects with Steroid-free Remission at Week 52. • Mean change in total IBDQ score from Baseline to Week 52. • Proportion of subjects with an IBDQ Response at Week 52. • Proportion of subjects with IBDQ Remission at Week 52.

[3] = in vivo; cited from earlier work

For `CCN(C(=O)c1c(O)c2c(Cl)cccc2n(C)c1=O)c1ccccc1` [laquinimod], the “improve IBDQ score from Baseline by Week 8” value ([1]; 0.25 mg/day) was “effective”, the “induce IBDQ Response and/or IBDQ Remission by Week 8” value ([1]; 0.25 mg/day) was “effective” and the “induce Remission (CDAI <150) by Week 8” value ([1]; 0.25 mg/day) was “effective”. For the same compound, the “induce Response 70 and/or Response 100 by Week 8” value ([1]; 0.25 mg/day) was “effective”, the “improve IBDQ score from Baseline by Week 8” value ([1]; 0.5 mg/day) was “effective” and the “induce IBDQ Response and/or IBDQ Remission by Week 8” value ([1]; 0.5 mg/day) was “effective”. The “induce Remission (CDAI <150) by Week 8” value ([1]; 0.5 mg/day) was “effective”, the “induce Response 70 and/or Response 100 by Week 8” value ([1]; 0.5 mg/day) was “effective” and the “improve and/or maintain IBDQ score by Week 52” value ([2]; 0.25 mg/day) was “effective”. For the same compound, the “induce and/or maintain IBDQ Remission by Week 52” value ([2]; 0.25 mg/day) was “effective”, the “induce and/or maintain IBDQ Response by Week 52” value ([2]; 0.25 mg/day) was “effective” and the “induce and/or maintain Remission by Week 52” value ([2]; 0.25 mg/day) was “effective”. The “induce and/or maintain steroid-free Remission by Week 52” value ([2]; 0.25 mg/day) was “effective”, the “sustain Remission (Remission at Week 36 and Week 52)” value ([2]; 0.25 mg/day) was “effective” and the “improve and/or maintain IBDQ score by Week 52” value ([2]; 0.5 mg/day) was “effective”. The “induce and/or maintain IBDQ Remission by Week 52” value ([2]; 0.5 mg/day) was “effective”, the “induce and/or maintain IBDQ Response by Week 52” value ([2]; 0.5 mg/day) was “effective” and the “induce and/or maintain Remission by Week 52” value ([2]; 0.5 mg/day) was “effective”. For the same compound, the “induce and/or maintain steroid-free Remission by Week 52” value ([2]; 0.5 mg/day) was “effective”, the “sustain Remission (Remission at Week 36 and Week 52)” value ([2]; 0.5 mg/day) was “effective” and the oral bioavailability [3] was “high”.
